Test results: ChEMBL document CHEMBL2034875, “Bifunctionalized amphilectane diterpenes from the sponge Stylissa cf. massa” (J Nat Prod, 2012)
The source made the active and inactive calls. The calls are words filed in the database; no cut-off is given here.

How the values were obtained:
[1] = Cytotoxicity against human MCF7 cells assessed as growth inhibition at 25 ug/mL by SRB assay; type: cell-based; settings: read-out: GI
Plasmodium falciparum [2] = assay: Antimalarial activity against Plasmodium falciparum K1 infected in human erythrocytes assessed as inhibition of [3H]hypoxanthine incorporation at 10 ug/mL incubated for 24 hrs prior to hypoxanthine addition measured after 18 hrs by liquid scintillation counting; type: functional, organism-based
Plasmodium falciparum [3] = assay: Antimalarial activity against Plasmodium falciparum K1 infected in human erythrocytes assessed as inhibition of [3H]hypoxanthine incorporation incubated for 24 hrs prior to hypoxanthine addition measured after 18 hrs by liquid scintillation counting; type: functional, organism-based

Row | SMILES | inhibition at 25 ug/mL [1] [%] | Activity (Plasmodium falciparum [2]) | IC50 (Plasmodium falciparum [3]) [µM]
1 | C=C(C)C[C@@H]1C[C@H](C)[C@H]2CC[C@](C)(NC=O)[C@H]3CCC(=C)[C@@H]1[C@H]23 | < 50 | inactive | –
2 | C=C1CC[C@@]2(N=C=O)[C@H]3[C@H](CC[C@@H]2C)[C@@H](C)C[C@@H](CC(C)(C)NC=O)[C@H]13 | < 50 | – | 8.85
3 | C=C1CC[C@@]2(N=C=S)[C@H]3[C@H](CC[C@@H]2C)[C@@H](C)C[C@@H](CC(C)(C)NC=O)[C@H]13 | < 50 | – | 8.07
4 | [C-]#[N+][C@@]12CCC(=C)[C@H]3[C@H](CC(C)(C)NC=O)C[C@H](C)[C@@H](CC[C@@H]1C)[C@@H]32 | < 50 | – | 0.52
5 | C[C@H]1[C@@H](O)O[C@@H]2O[C@@]3(C)CC[C@H]4[C@H](C)CC[C@@H]1[C@@]24OO3 [ARTENIMOL] | – | – | 0.0038
